# Test results: patent US7071166B2, “Skin wound healing promoters” (Santen Pharmacetical Co., Ltd., priority 2000, dated 2006)
# Where a SMILES comes first, the peptide text is derived from it.
# Legend:
# [1] = test system: ear tissue pieces (epidermal cell layer); test: Action on epidermal extension (cultured rat ear tissue pieces); type: cell-based, rats (Spraque-Dawley); settings: for Extension length of epidermis: TCM 199 medium, cultured 24 hours, substance P or FGLM 20 μM, IGF-I 10 ng/ml, average of 12 samples; for Epidermal extension compared with control (in words): each drug used solely
# Method: Excessive pentobarbital was administered to rats (Spraque-Dawley), and then ear tissue pieces of about 2×4 mm were prepared. Into a 60 mm Petri dish was put 18 ml of each TCM 199 culture medium containing each of test drugs in Table 1 [substance P, FGLM (SEQ ID NO: 2), IGF-I, substance P+IGF-I and FGLM (SEQ ID NO: 2)+IGF-I], and […] were added to each Petri dish (12 samples: three sections per group). The tissue pieces were cultured in a CO2 incubator (37° C.·5% CO2) for 24 hours, the tissue pieces were fixed with ethanol-acetic acid (volume ratio 95:5) to prepare three tissue sections per tissue piece according to the conventional method. The tissue sections were stained with hematoxylin-eosin, and then length of a epidermal cell layer having extended cut surfaces was measured. The tissue pieces were cultured under the same condition as mentioned above using a culture medium containing no test drug to prepare controls. The values in the table are the average of 12 samples.
# [2] = test system: full-thickness wounds on back skin of diabetes rats (DM Rat); test: Action on skin wound healing, streptozotocin diabetes rats; type: in vivo, rats (Wistar); settings: ointment once a day, substance P 2.5 mg/ml, IGF-I 1 μg/ml, average of five
# Method: (§1) Streptozotocin (70 mg/kg BW) dissolved in a citric acid buffer was injected intravenously into tails of rats (Wistar) under diethyl ether inhalation anesthesia to prepare diabetes rats (DM Rat) (five rats per group). An equal amount of the citric acid buffer alone was injected intravenously into rats (Wistar) to prepare non-diabetes rats (non DM Rat) (five rats per group). Four weeks after the intravenous injection, the back of all the rats was shaved with hair clippers under diethyl ether inhalation anesthesia, and hair was removed with cream for depilation. After 24 hours, five full-thickness (i.e. epidermis and dermis) wounds were made on back skin in equal intervals with a trepan for skin biopsy having a diameter of 5 mm. Confirming hemostasis, each ointment in Tables 2 and 3 was applied on the wound once a day. Just before applying the ointment once a day, the back wounds were photographed, and their areas were measured. […] The values in these tables are the average of five samples.
# [3] = test system: full-thickness wounds on back skin of non-diabetes rats (non DM Rat); test: Action on skin wound healing, non-diabetes rats; type: in vivo, rats (Wistar); settings: ointment once a day, substance P 2.5 mg/ml, IGF-I 1 μg/ml, average of five
# Method: as §1
Compound,Extension length of epidermis [1] [μm],Epidermal extension compared with control (in words) [1],Skin wound area of diabetes rat ([2]; 1st day) [%],Skin wound area of diabetes rat ([2]; After 1 day) [%],Skin wound area of diabetes rat ([2]; After 4 days) [%],Skin wound area of diabetes rat ([2]; After 7 days) [%],Skin wound area of diabetes rat ([2]; After 10 days) [%],Skin wound area of non-diabetes rat ([3]; 1st day) [%],Skin wound area of non-diabetes rat ([3]; After 2 days) [%],Skin wound area of non-diabetes rat ([3]; After 4 days) [%],Skin wound area of non-diabetes rat ([3]; After 6 days) [%]
"CSCC[C@H](NC(=O)[C@H](CC(C)C)NC(=O)CNC(=O)[C@@H](N)Cc1ccccc1)C(N)=O [FGLM, Phe-Gly-Leu-Met-NH2] (H-FGLM-NH2)",55.37,almost as long as that in the case where the control is used,–,–,–,–,–,–,–,–,–
"CSCC[C@H](NC(=O)[C@H](CC(C)C)NC(=O)CNC(=O)[C@H](Cc1ccccc1)NC(=O)[C@H](Cc1ccccc1)NC(=O)[C@H](CCC(N)=O)NC(=O)[C@H](CCC(N)=O)NC(=O)[C@@H]1CCCN1C(=O)[C@H](CCCCN)NC(=O)[C@@H]1CCCN1C(=O)[C@@H](N)CCCNC(=N)N)C(N)=O [Substance P, Arg-Pro-Lys-Pro-Gln-Gln-Phe-Phe-Gly-Leu-Met-NH2]",72.57,almost as long as that in the case where the control is used,100,90,77,68,44,100,88,74,59
IGF-I: insulin-like growth factor-I,50.68,almost as long as that in the case where the control is used,100,89,64,52,27,100,81,66,43
